US4704407A, “Soluble dobutamine salts” (Eli Lilly and Company, priority 1986, dated 1987)
Structures can show the parent of a compound that is named as a salt. Values belong to the compound of their own block, whether it stands above or below them.

How the values were obtained:
[1] = Solubility of dobutamine salts (as dobutamine base, in water); format: physicochemical
Experimental: 8.3 Millimoles of dobutamine free base and 8.7 millimoles of one of each of the following acids: glycolic, (+)-tartaric, gluconic, lactobionic and glucoheptonic, were mixed under an N2 atmosphere were an amount of 0.035 g aqueous sodium bisulfite dissolved in water for injection such that the final volume was […]; i.e., 100 mg/ml of dobutamine base. If required, the salt-forming mixture was warmed to expedite solution of dobutamine base. The solid salt can be obtained from the solution, if desired, by evaporation of the solvent.
The solubilities of each of the dobutamine salts thus prepared was in excess of 100 mg/ml. By contrast, a saturated solution of dobutamine hydrochloride provides about 25 mg/ml of dobutamine.
Furthermore, with any of the acids named, stereoisomers thereof can also be used rather than a racemate. Dobutamine content of all solutions is monitored with UV.

[2] = cited from earlier work
[3] = Storage stability of concentrate solutions; format: physicochemical; conditions: at 5° C., N2 atmosphere, with sodium bisulfite, pH=3.65
Description: In a repeat with (-) tartaric acid, 58.6 g of dobutamine hydrochloride in deaerated water were neutralized with dilute aqueous sodium hydroxide in the presence of a peroxide scavenger under N2; pH=11.09. The precipitate of dobutamine base was washed with the […] and dried. The filter cake was dissolvd in 2 l of deaerated water followed by 26.1 g of (-)-tartaric acid and 0.8 g of sodium bisulfite; pH=3.65. The solution was filtered and then stored at […], always under an N2 atmosphere. Such stored concentrate solutions are stable for 12 months or more at 5° C.

[4] = ascribed to dobutamine, U.S. Pat. No. 3,932,461
[5] = U.S. Pat. No. 3,932,461 (Suh I)

Compound: CC(CCc1ccc2c(c1)OCO2)NCCc1ccc(O)c(O)c1 (centres unmarked) [N-[3-(3,4-methylenedioxyphenyl)-1-methylpropyl 2-(3,4-dihydroxyphenyl)ethylamine]
- cardiotonic properties [2, 5]: cardiotonic properties similar to those ascribed to dobutamine
- depressant or analgesic activity [2, 5]: depressants or analgesics

Compound: CC(CCc1ccc(O)cc1)NCCc1ccc(O)c(O)c1 (centres unmarked) [dobutamine hydrochloride]
- solubility ([1]; water, saturated solution, mg/ml of dobutamine, read-out: dobutamine provided by a saturated solution): ~25 mg/mL

Compound: CC(CCc1ccc(O)cc1)NCCc1ccc(O)c(O)c1 (stereo not drawn) [dobutamine salt of (-)-tartaric acid]
- stability of stored concentrate solutions [3]: ≥ 12 months

The next lines start with results.

- solubility of the dobutamine salt (in words) ([1]; salts with further tartaric acid isomers): high solubility
Compound: CC(CCc1ccc(O)cc1)NCCc1ccc(O)c(O)c1 (racemic) [dobutamine salt of (±)-tartaric acid]

- solubility in water (in words) ([1]; dobutamine base separates from the alkaline medium): water-insoluble
Compound: CC(CCc1ccc(O)cc1)NCCc1ccc(O)c(O)c1 (racemic) [dobutamine, (±)-N-[3-(4-hydroxyphenyl)-1-methylpropyl]2-(3,4-dihydroxyphenyl) ethylamine]
- contractile force [2, 4]: increased contractile force
- effect on blood pressure or heart rate [2, 4]: without significant effect on blood pressure or heart rate
